The text below walks through data of patent publication US20180238886A1, “METHODS FOR TREATING HEMATOLOGICAL CANCER AND THE USE OF BIOMARKERS AS A PREDICTOR FOR RESPONSIVENESS TO TREATMENT COMPOUNDS” (CELGENE CORPORATION, priority 2017, published 2018).

This assay concerns DLBCL patients. The assay is described as follows: Clinical evaluation of gene classifiers in the Compound A cohort (progression free survival, objective response). Type of assay: in vivo, human. Also noted: Median Surv BM+ / Median Surv BM−: unit not given here. The following applies: for Predictive Effects Cox HR: BM+ vs BM-; for Predictive Effects Cox HR / Median Surv BM− / Median Surv BM+: progression free survival, Cmp A-ST (N = 57); for Median Surv BM−: biomarker-negative patients; for Median Surv BM+: biomarker-positive patients; for CR BM+ / CR BM−: number of complete responses; for OR BM+ / OR BM−: number of objective responses. An excerpt:
A proof of principle study was designed to translate the biomarker content and model to a clinically viable platform. The study consisted of four major steps: 1) development of a simplified linear model of the primary signal, 2) placing the model in the scale of a clinically viable technology (such as but not limited to, Nanostring nCounter or qRT-PCR), 3) establishing a threshold to replicate the output of the research assay, and 4) evaluating the simplified model and threshold in the Compound A cohort. The final model was applied to the Lenz microarray cohort and the Compound A Non-transformed cohort assayed by Nanostring nCounter. The classification of each sample was then combined with clinical data, and associations with clinical variables such as objective response and progression free survival were calculated. Results are shown as Kaplan-Meier plots in FIGS. 4A-4D. […] FIGS. 4A and 4C show the original 26 gene research classifier, and FIGS. 4B and 4D show the linear model that resulted from this bridging study. […] Importantly, the shapes of the curves for each group are very similar between the original 26 gene classifier and the bridged linear model. Additional results including biomarker prevalence, summary statistics from Cox Proportional Hazards models, objective response, and model details are listed in Table 6.

[1] abbreviates: CG26 classifier, BM+ (25 patients).
Where [2] appears, read: CG26 classifier, BM− (32 patients).
Where [3] appears, read: M1 classifier, BM+ (22 patients).
Setting [4] is: M1 classifier, BM− (35 patients).

Each structure is given as a SMILES string.

As to `Cc1nc2cccc(N)c2c(=O)n1C1CCC(=O)NC1=O` (centres unmarked) [Compound A, 3-(5-amino-2-methyl-4-oxo-4H-quinazolin-3-yl)-piperidine-2,6-dione], for the setting “CG26 classifier”, the “Predictive Effects Cox HR” value was 0.31, the “Median Surv BM−” value was determined as 6.7 and the “Median Surv BM+” value is listed as 35.9. For the setting “M1 classifier”, the “Predictive Effects Cox HR” value is listed as 0.32, the “Median Surv BM−” value amounted to 6.9 and the “Median Surv BM+” value worked out at 37.9. Moreover, under setting [1], the “CR BM+” value is 4 and the “OR BM+” value worked out at 12. Under setting [2], the “CR BM−” value came out at 2 and the “OR BM−” value amounted to 5. Under setting [3], the “CR BM+” value is reported as 4 and the “OR BM+” value was determined as 10. Under setting [4], the “CR BM−” value is on record as 2 and the “OR BM−” value is 7.
